# Publication PMC11321563, “Enolase inhibitors as therapeutic leads for Naegleria fowleri infection” (PLOS Pathogens, 2024)
# Entries after “also recorded” stand apart in the source; their conditions may differ. Where two headings read alike, the source gives them in different places.
# Experiments:
# [1] = system: N. fowleri strain Nf69 (ATCC 30215) trophozoites; assay: N. fowleri trophozoite viability, CellTiter-Glo, 48 hr; format: cell-based, Naegleria fowleri; details: for EC50: Naegleria fowleri
# Method: N. fowleri strain Nf69 (ATCC 30215) or strain TY (ATCC 30107) trophozoites and N. gruberi strain NEG-M (ATCC 30224) were cultured axenically as previously described. Briefly, parasites were seeded at 1 x 10^4 cells/mL (N. fowleri) or 5 x 10^3 cells/mL (N. gruberi) in 100 μL of the indicated medium in white TC-treated 96-well plates (Thermo Scientific Nunc Microwell 136101). For assays under standard growth conditions ("+ glc"), N. fowleri cells were seeded into Nelson’s Complete Media (NCM, 0.17% liver infusion broth (BD Difco, Franklin Lakes, NJ), 0.17% glucose, 0.012% sodium chloride, 0.0136% potassium phosphate monobasic, 0.0142% sodium phosphate dibasic, 0.0004% calcium chloride, 0.0002% magnesium sulfate, 10% heat-inactivated fetal bovine serum (FBS), 1% penicillin-streptomycin) at 37°C. For assays in modified medium ("-glc/+gly"), cells were seeded into the media without glucose but supplemented with 10 mM glycerol. For standard growth of N. gruberi, cells were seeded into PYNFH-complete media (1.0% peptone, 1.0% yeast extract, 0.1% yeast nucleic acid, 0.0015% folic acid, 0.0001% hemin, 0.0362% potassium phosphate monobasic, 0.05% disodium phosphate, 10% heat-inactivated fetal bovine serum (FBS), 1% penicillin-streptomycin) at 25°C. For determination of EC50 value, concentrations of drug ranging from 0.07826–5 μM were used. After culturing for 48 hr (37°C, 5% CO2 for N. fowleri, 25°C, 5% CO2 for N. gruberi) in the presence of compound or vehicle, plates were equilibrated to RT for 15 min and CellTiter Glo reagent (Promega, Madison, WI, USA) was added followed by orbital shaking for 2 min. After an additional incubation (RT, 10 min), luminescence was scored on a BioTek Synergy H1 mircoplate reader. Parasite density was scored and kinetic analyses were performed with Prism 9.0 (GraphPad Software, San Diego, CA) using the Michaelis-Menten model. All viability assays were performed in technical triplicates with at least three biological replicates.
# [2] = target: human ENO2 (gamma-enolase, HsENO2) (Homo sapiens, UniProt P09104); assay: Human ENO2 coupled enzyme inhibition assay; format: biochemical
# human ENO2 (gamma-enolase, HsENO2), sequence (P09104 whole entry): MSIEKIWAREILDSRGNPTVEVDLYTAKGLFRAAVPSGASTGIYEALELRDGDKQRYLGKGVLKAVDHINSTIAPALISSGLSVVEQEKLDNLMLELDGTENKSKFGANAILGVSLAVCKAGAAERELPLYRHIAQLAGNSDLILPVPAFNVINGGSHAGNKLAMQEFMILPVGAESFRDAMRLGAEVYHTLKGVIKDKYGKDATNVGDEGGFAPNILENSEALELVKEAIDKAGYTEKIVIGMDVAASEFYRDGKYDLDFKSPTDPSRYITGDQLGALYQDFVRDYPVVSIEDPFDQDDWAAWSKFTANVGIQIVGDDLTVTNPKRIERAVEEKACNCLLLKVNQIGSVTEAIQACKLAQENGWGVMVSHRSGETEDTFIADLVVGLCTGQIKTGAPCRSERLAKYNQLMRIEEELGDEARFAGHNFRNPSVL
# Method: (§1) ENO was assayed in triplicate using a coupled reaction to measure enzyme activity. Briefly, enzyme (50 nM) in assay buffer (100 mM HEPES, pH 8.0, 3.3 mM MgSO4) was loaded in black 96-well plates with or without inhibitors. To start the reaction, substrate buffer (3.75 mM 2-PG, 1.75 mM ADP, 1 U of pyruvate kinase/lactate dehydrogenase, and 0.4 mM NADH in assay buffer) was added to each well. The rate of reduction in fluorescence (excitation: 360 nm; emission: 460 nm), a measure of NAD production, was then scored on a Biotek Synergy H1 microplate reader every 20 seconds for 4 minutes. Kinetic analyses were performed with Prism 9.0 (GraphPad Software, San Diego, CA) using the Michaelis-Menten model. For assays involving inhibitors, compounds (in DMSO) were incubated at RT with enzyme in assay buffer […] for 15 minutes prior to initiation of the reaction by addition of the substrate. All assays were performed in triplicate with vehicle control (DMSO) included.
# [3] = target: N. fowleri ENO (NfENO) (Naegleria fowleri, UniProt A0A6A5BXC3); assay: NfENO coupled enzyme activity/inhibition assay (PK/LDH, NADH fluorescence); format: biochemical
# N. fowleri ENO (NfENO), sequence (A0A6A5BXC3 entry or part of it): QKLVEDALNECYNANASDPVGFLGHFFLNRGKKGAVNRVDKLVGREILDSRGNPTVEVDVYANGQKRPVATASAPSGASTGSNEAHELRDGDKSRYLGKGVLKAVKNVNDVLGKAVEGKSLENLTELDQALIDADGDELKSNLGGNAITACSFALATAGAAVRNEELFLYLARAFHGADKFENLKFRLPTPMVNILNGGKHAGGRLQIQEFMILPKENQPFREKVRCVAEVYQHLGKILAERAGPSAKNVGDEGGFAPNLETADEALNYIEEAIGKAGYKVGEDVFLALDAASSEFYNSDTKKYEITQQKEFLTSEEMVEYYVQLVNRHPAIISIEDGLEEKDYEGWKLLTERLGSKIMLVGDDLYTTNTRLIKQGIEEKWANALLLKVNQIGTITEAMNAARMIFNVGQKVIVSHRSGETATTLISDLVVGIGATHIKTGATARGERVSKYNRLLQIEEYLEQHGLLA
# Method: as §1
# [4] = HEK-293 cytotoxicity, CellTiter Blue, 48 hr; format: cell-based; details: human, HEK-293 cells (ATCC CRL-1573); HEK-293, 48 hr; no superscript in Fig 1; read-out: Human cell line CC50
# Method: HEK-293 (ATCC CRL-1573) cells were cultured axenically in Dulbecco’s Modified Eagle Medium with 4.5g/L D-glucose, L-glutamine (Gibco 11965) and 10% fetal bovine serum (FBS) at 37°C, 5% CO2. […] After a 48 hr incubation (37°C, 5% CO2), CellTiter Blue reagent (Promega, Madison, WI, USA) was added to each well. After an additional 3-hour incubation (37°C, 5% CO2) with reagent, fluorescence was scored on a a BioTek Synergy H1 mircoplate reader and percent growth inhibition values were solved.
# [5] = system: Human cell line; details: read-out: Human cell line CC50, cited from earlier work
# [6] = Intranasal dose-finding tolerability in uninfected CD rats; format: in vivo, rat; details: 1.6, 16, or 120 mg/kg HEX in PBS once daily for five days
# [7] = system: Entamoeba histolytica; assay: Entamoeba histolytica growth; format: cell-based
# [8] = system: intracranial orthotopic ENO1-deficient tumors; set-up: method as in PMID 33230295; details: cited from earlier work
# [9] = system: N. fowleri strain Nf69 (ATCC 30215) trophozoites; assay: N. fowleri trophozoite viability, CellTiter-Glo, 48 hr; format: cell-based; details: Naegleria fowleri, ATCC30215, read-out: EC50 after short exposure
# [10] = system: ENO1-/- glioma cells; details: read-out: EC50 against ENO1-/- glioma cells; cited from earlier work
# [11] = set-up: method as in PMID 33230295; details: non-human primates, cited from earlier work
# [12] = system: ENO1-rescued glioma and other control cells; set-up: method as in PMID 33230295; details: cited from earlier work
# [13] = system: N. fowleri strain 69 trophozoites; assay: Rat model of N. fowleri infection, nasal instillation treatment; format: in vivo, Naegleria fowleri
# Source text: Twenty-four CD rats (12 females, 12 males, aged 42–48 days, Charles River) housed in pairs were infected by nasal instillation with 2.5 x 10^5 N. fowleri strain 69 trophozoites that had been isolated after passage through mice to ensure virulence. Rats were provided unlimited food and water throughout the duration of the experiment. The two groups consisted of equal numbers of males and females. […] Rodents were monitored carefully and euthanized when symptoms of infection, including failure to respond to stimuli or seizures, were evident. After 17 days, surviving animals were sacrificed and brains were removed to assess cure.
# [14] = system: Balamuthia mandrillaris; assay: Balamuthia mandrillaris growth; format: cell-based
# [15] = system: N. gruberi; assay: N. gruberi growth; format: cell-based, Naegleria gruberi
# Method: N. fowleri strain Nf69 (ATCC 30215) or strain TY (ATCC 30107) trophozoites and N. gruberi strain NEG-M (ATCC 30224) were cultured axenically as previously described. Briefly, parasites were seeded at 1 x 10^4 cells/mL (N. fowleri) or 5 x 10^3 cells/mL (N. gruberi) in 100 μL of the indicated medium in white TC-treated 96-well plates (Thermo Scientific Nunc Microwell 136101). For assays under standard growth conditions ("+ glc"), N. fowleri cells were seeded into Nelson’s Complete Media (NCM, 0.17% liver infusion broth (BD Difco, Franklin Lakes, NJ), 0.17% glucose, 0.012% sodium chloride, 0.0136% potassium phosphate monobasic, 0.0142% sodium phosphate dibasic, 0.0004% calcium chloride, 0.0002% magnesium sulfate, 10% heat-inactivated fetal bovine serum (FBS), 1% penicillin-streptomycin) at 37°C. For assays in modified medium ("-glc/+gly"), cells were seeded into the media without glucose but supplemented with 10 mM glycerol. […] After an additional incubation (RT, 10 min), luminescence was scored on a BioTek Synergy H1 mircoplate reader. Parasite density was scored and kinetic analyses were performed with Prism 9.0 (GraphPad Software, San Diego, CA) using the Michaelis-Menten model. […]
# [16] = system: N. fowleri trophozoites; assay: Unbiased metabolomics of amoebae after HEX treatment (2DLC-MS); format: cell-based, Naegleria fowleri; details: cells grown in glycerol, HEX-treated vs untreated
# Method: For unbiased metabolomics analyses, N. fowleri trophozoites were grown to near 100% confluency in 6-well TC-treated plates (Thermo Scientific Nunclon Delta Surface 140685). […] Samples were then washed three times in RT PBS prior to the addition of ice-cold CH3CN. Plates were then incubated at –20°C for 20 min, followed by the addition of ice-cold nanopure H2O and removal of the solution to sterile microcentrifuge tubes. This process was repeated twice, and the total volume of extraction material was adjusted to 2.5 x 10^6 cell equivalents per sample. Tubes were stored at –80°C prior to analysis.
# Each cell sample was vortexed with glass beads for 5 min in a MM200 Mix Grinder (Retsch USA, Newtown, PA, USA). The mixture was centrifuged at 14,000 rpm for 20 min at 4°C. The supernatant was transferred into a new tube and lyophilized overnight. The dried sample was reconstituted in 60 μL 50% CH3CN and analyzed in random order on a parallel two-dimensional liquid chromatography-mass spectrometry (2DLC-MS) system, a Thermo DIONEX UltiMate 3000 HPLC system (Thermo Fisher Scientific, Waltham, MA, USA) coupled with a Thermo Q Exactive HF Hybrid Quadrupole-Orbitrap Mass Spectrometer (Thermo Fisher Scientific, Waltham, MA, USA). […] Each sample was analyzed by the 2DLC-MS under both positive (+) and negative (–) modes to obtain full MS data for metabolite quantification. […]
# [17] = set-up: method as in PMID 33230295; details: rats; cited from earlier work
# [18] = ATCC30215, 48 h, read-out: N. fowleri EC50
# [19] = 15 min preincubation with compound, read-out: HsENO2 IC50
# [20] = recombinant NfENO, 50 nM enzyme, 15 min preincubation with compound, read-out: NfENO IC50
# [21] = value with superscript 3 in Fig 1, footnote not given, ref superscript 3
structure (smiles),measurement,setting,value
"O=C1C(P(=O)(O)O)CCCCN1O (centres unmarked) [HEPTA, (1-hydroxy-2-oxoazepan-3-yl) phosphonic acid]",EC50,[1]; [18],> 10000 nM
same,IC50,[2],5800 ± 880 nM
same,IC50,[3],4700 ± 1400 nM
CC(C)OC(=O)[C@H](C)NP(=O)(OCOC(=O)C(C)(C)C)C1CCCN(O)C1=O (some centres unmarked) [CDP25],CC50 at 48 h,[4],> 5000 nM
same,EC50,[1]; [18],310 ± 150 nM
same,IC50,[3],> 10000 nM
"O=C1C(P(=O)(O)O)CCN1O (centres unmarked) [Deoxy-SF2312, (1-hydroxy-2-oxopyrrolidin-3-yl) phosphonic acid]",CC50 at 48 h,[4],> 200000 nM
same,EC50,[1]; [18],950 ± 200 nM
same,IC50,[2],100 ± 40 nM
same,fold more potent against ENO2 than NfENO,[2]; ratio of IC50 values,more than 10 fold
same,IC50,[3],1200 ± 470 nM
O=C1C(P(=O)(O)O)CCCCN1OCc1ccccc1 (centres unmarked) [Benzyl-HEPTA],EC50,[1]; [18],> 10000 nM
same,IC50,[2]; [19],> 10000 nM
same,IC50,[3]; [20],> 10000 nM
CC(C)(C)C(=O)OCOP(=O)(OCOC(=O)C(C)(C)C)C1CC(O)N(O)C1=O (centres unmarked) [POMSF],increase in amoebicidal potency relative to SF2312,[1]; EC50 ratio,about 2.4 fold
same,EC50,[1]; [18],660 ± 90 nM
same,IC50,[2]; [19],> 10000 nM
same,IC50,[3]; [20],> 10000 nM
"O=C1C(P(=O)(O)O)CC(O)N1O (centres unmarked) [SF2312, (1,5-dihydroxy-2-oxopyrrolidin-3-yl) phosphonic acid, reference compound]",EC50,[1]; [18],1600 ± 110 nM
same,IC50,[2],630 ± 10 nM
same,CC50,"[5]; value with superscript 1 in Fig 1, footnote not given, ref superscript 1",> 200000 nM
same,IC50,[3],310 ± 70 nM
"O=C1C(P(=O)(O)O)CCCN1O (centres unmarked) [HEX, (1-hydroxy-2-oxopiperidin-3-yl) phosphonic acid]",adverse effects of intranasal instillation,[6],none of the rats had any noticeable reaction to treatment
same,impact on growth,[7],no impact
same,intracranial tumor growth,[8],almost completely inhibited intracranial tumor growth
same,EC50,[9],8060 ± 2600 nM
same,EC50,[10],1300 nM
same,EC50,[1]; [18],210 ± 20 nM
same,EC50,"[1]; ATCC30215, 336 h, read-out: EC50 of trophozoites cultured from brain of HEX-treated rodent",90 ± 40 nM
same,EC50,"[1]; ATCC30215, 336 h, read-out: EC50 of trophozoites cultured from brain of PBS-treated (Vehicle) rodent",100 ± 80 nM
same,EC50,"[1]; ATCC30215, 504 h, read-out: EC50 after removal of selection",110 ± 10 nM
same,EC50,"[1]; ATCC30215, read-out: EC50 in glycerol medium",2500 ± 110 nM
same,EC50,"[1]; ATCC30215, read-out: EC50 of HEX-adapted amoebae",570 ± 300 nM
same,plasma concentrations,"[11]; IP 300 mg/kg, for several hours",about 750 μM
same,IP dose tolerated without adverse effects,[11]; IP,300 mg/kg
same,CC50,[12],> 300000 nM
same,median survival time,"[13]; HEX 3 mg/kg nasal instillation for 10 days, >50% of the population survived",indeterminable; also recorded: undefined
same,animals remaining at conclusion of treatment,"[13]; day 11, HEX 3 mg/kg nasal instillation once a day for 10 days from day 2",11 of 12
same,survivors with brains positive for amoebae by culture,[13]; of the eight HEX-treated survivors,six of the eight and six
same,impact on growth,[14],no impact; also recorded: inactive
same,impact on growth,[15],no impact
same,IC50,[2],360 ± 40 nM
same,decrease in pyruvate levels,[16],~50%
same,CC50,[5]; [21],> 300000 nM
same,IC50,[3],140 ± 40 nM
same,mode of NfENO inhibition,[3],competitive inhibitor
same,plasma elimination half-life,[17],about 60 minutes
O=C1C(P(=O)(O)O)CCN1OCc1ccccc1 (centres unmarked) [Benzyl- deoxy- SF2312],EC50,[1]; [18],> 10000 nM
same,IC50,[2]; [19],> 10000 nM
same,IC50,[3]; [20],> 10000 nM
O=C1C(P(=O)(O)O)CCCN1OCc1ccccc1 (centres unmarked) [BenzylHEX],EC50,[1]; [18],> 10000 nM
same,IC50,[2]; [19],> 10000 nM
same,impact on NfENO,[3]; at 10 μM,no impact
same,IC50,[3]; [20],> 10000 nM
CC(C)(C)C(=O)OCOP(=O)(OCOC(=O)C(C)(C)C)C1CCCN(O)C1=O (centres unmarked) [POMHEX],EC50,[1]; [18],700 ± 100 nM
same,IC50,[2]; [19],> 10000 nM
same,CC50,[5]; [21],> 4900 nM
same,IC50,[3]; [20],> 10000 nM
"O=C(O)[C@@H](CO)OP(=O)(O)O [2-PG, 2-phosphoglycerate]",Km,"[3]; truncation residues 44–512, NafoA.00379.a.B5.PW38978, read-out: apparent KM for 2-PG",923 ± 0.336 µM
